According to US12338251B2, “Substituted macrocycles useful as kinase inhibitors” (TELIGENE LTD, priority 2019, dated 2025):
Converted amounts (≈) assume the structure as drawn.

What was measured:
[1] = One-month toxicity studies in rats; assay type: in vivo; details: 8 mg/kg/day females and 16 mg/kg/day males
[2] = tested on: BaF3-SLC34A2-ROS1 cell line xenograft; test: In vivo xenograft assay, subcutaneous BaF3-SLC34A2-ROS1 in nude mice; design: species or system Balb/c nude mice; details: 5 mg/kg oral gavage once daily; for Tumor weight at Day 20: nude mice, control 2.118 g
Text: A representative protocol for the in vivo experiment is as followed to establish the subcutaneous BaF3—SLC34A2-ROS1 cell line xenograft model in nude mice and to evaluate the in vivo therapeutic efficacy of the compounds:
Animals: Male Balb/c nude mice (6˜8 weeks old) were obtained from SLAC Laboratory Animal, Shanghai, China. Animals were maintained under SPF conditions in sterile filter top cages and housed on HEPA-filtered ventilated racks. Animals received sterile rodent chow and water ad libitum.
Cell line: BaF3—SLC34A2-ROS1, S.C.
Xenograft Models in Athymic Mice: Cells for implantation into athymic mice were harvested and pelleted by centrifugation at 1200 r/min for 5 min. Cells were washed once and resuspended in sterile PBS buffer with 5×10^6 in 200 μl. Then cells were implanted s.c. into the right scapular region of each mouse and allowed to grow to 200-300 mm^3 before the administration of compound.
Preparation of the Dose Formulation: each compound was suspended in 0.5% sodium carboxymethyl cellulose (CMC-Na). […]
Observations: After inoculation, the animals are checked daily for morbidity and mortality. At the time of routine monitoring, the animals are checked for any effects of tumor growth and treatments on normal behavior such as mobility, body weight gain/loss (body weights are measured twice weekly or every other day), eye/hair matting and any other abnormal effect. Death and observed clinical signs are recorded on the basis of the numbers of animals within each subset.
Tumor Size Measurements: Tumor volume was determined by measurement with electronic vernier calipers every 3 days and tumor volume was calculated as the product of its length×width2×0.5. […]
Percentage (%) inhibition values were measured for drug-treated mice compared with vehicle-treated mice and are calculated as follows: Tumor growth inhibition (TGI, %)=100−[MTV treated/MTV control]×100, where MTV is the median tumor volume. Significant differences between the treated versus the control groups (p<0.05) were determined using t test. […]

[3] = Solubility measurement (HPLC); assay type: physicochemical; details: for solubility at 30 min: pH 7.0 buffer solution (20 mM), aqueous buffer, thermodynamic from solid
Description: Preparation of reference standard solution: 2 mg of Compound was added individually to 100 mL volumetric flask each. The compound was diluted with acetonitrile to 100 mL.
Preparation of sample solution: 2 mg of Compound was added individually to 2 mL eppendorf tube (EP), followed by addition of 1 mL of pH 7.0 or 10.0 buffer solution (20 mM). The solution was shaken for 2 minutes and left for 30 minutes at 25° C. After standing for 30 minutes, precipitate was formed in the bottom of the EP. The solutions were filtered through a 0.2 um membrane filter, and then diluted by 50 times with water.
The standard and sample solutions were injected into the HPLC on a Shim-Pack CLC-ODS C18 column (150 mm×6.0 mm, 5 μm) with the same volume. The mobile phase consisted of acetonitrile with 2% trichloromethane—20 mM KH2PO4 buffer (pH=7.0) at a flow rate of 1 mL/minute (40:60). The detection wavelength is at 264 nm. Calculation: solubility of sample=the concentration of standard×Area of sample×50/Area of standard.

[4] = Stability test for one month, purity by HPLC; assay type: physicochemical; details: for Day 30 at 25° C. (purity): HPLC purity after 30 days at 25° C.; for Day 0 (purity): HPLC purity, baseline of stability test
Description: Stability test: The compounds were tested for their stability at 25° C. for one month, using HPLC to measure the purity. […] Compound 2 is not stable at −30° C. […] (Table F).

[5] = Stability test for one month, purity by HPLC; assay type: physicochemical; details: HPLC purity after 30 days at 0° C.
[6] = tested on: Ba/F3 EML4-ALK-WT; test: Cell proliferation assay (CTG), Ba/F3 EML4-ALK-WT; assay type: cell-based; details: Mus musculus, BaF3, 72 hours
Description: (§1) A Representative Number of Compounds were Assayed Against BAF3 Cell Lines Using the Cell Proliferation Assays:
(§2) Cell Culture and Inoculation:
(§3) 1. Cells in logarithmic growth phase were harvested and counted by platelet counter. Trypan blue exclusion method was used to detect the cell viability to ensure that the cell viability was above 90%.
(§4) 2. Adjust the cell concentration; 90 μL cell suspension was added to 96 well plates respectively.
(§5) 3. Cells in 96-well plate were cultured overnight at 37° C., 5% CO2 and 95% of humidity.
(§6) Drug Dilution and Dosing:
(§7) 1. Prepare 10-fold drug solution with the highest concentration of 100 μM, 9 concentrations and 3.16-fold dilution. Add 10 μL of drug solution to each well of 96-well plate inoculated with cells, and set up 3 duplicate wells for each drug concentration.
(§8) 2. Cells in 96-well plates with drug added were cultured for 72 hours at 37° C., 5% CO2 and 95% of humidity, and then […]-GLO® (CTG) analysis was performed.
(§9) 1. Melt CTG reagent and equilibrate cell plates to room temperature for 30 minutes.
2. […]
(§10) 5. Read the cold light value.
(§11) The data were analyzed by GraphPad Prism 5.0 software, and the dose-effect curve was obtained by fitting the data by nonlinear S-curve regression, and IC50 value was calculated accordingly.
(§12) Cell survival rate (%)=(Lumdrug to be tested−Lumculture solution control)/(Lumcell control−Lumculture solution control)×100%. Lum is luminescence. […]

[7] = target: CYP 3A4 (Homo sapiens (Human), UniProt P08684); test: P450 3A4 assay in human liver microsomes (CYP inhibition); assay type: in vitro ADME; details: for IC50: testosterone probe substrate
CYP 3A4, sequence (P08684 whole entry): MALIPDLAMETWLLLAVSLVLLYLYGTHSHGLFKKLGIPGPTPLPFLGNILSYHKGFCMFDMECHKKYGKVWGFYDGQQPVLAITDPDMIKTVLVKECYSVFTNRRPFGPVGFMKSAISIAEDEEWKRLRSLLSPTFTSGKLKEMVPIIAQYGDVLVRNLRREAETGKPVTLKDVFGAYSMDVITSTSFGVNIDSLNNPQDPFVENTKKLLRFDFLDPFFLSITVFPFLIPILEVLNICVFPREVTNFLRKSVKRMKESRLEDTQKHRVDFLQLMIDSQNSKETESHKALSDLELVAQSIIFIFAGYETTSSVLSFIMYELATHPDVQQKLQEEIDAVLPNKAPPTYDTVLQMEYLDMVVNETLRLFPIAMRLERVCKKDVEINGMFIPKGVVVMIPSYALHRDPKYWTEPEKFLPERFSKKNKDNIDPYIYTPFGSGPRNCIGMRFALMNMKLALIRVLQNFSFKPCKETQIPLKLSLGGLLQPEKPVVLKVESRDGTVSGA
Description: The final concentrations of DMSO and acetonitrile were equal to or less than 0.1%.
The column temperature was maintained at ambient temperature (25° C.). […] The flow rate was maintained at 0.6 mL/min.

[8] = tested on: Ba/F3 EML4-ALK-L1196M; test: Cell proliferation assay (CTG), Ba/F3 EML4-ALK-L1196M; assay type: cell-based; details: 72 hours
Description: as §1, §2, §3, §4, §5, §6, §7, §8, §9
2. […]
as §10, §11, §12

[9] = PK study (bioavailability); assay type: in vivo; details: rats; 1 mg/kg IV and 10 mg/kg orally; parent compound plus major metabolites
Description: A representative protocol for the PK (pharmacokinetic) assay was as followed: Compounds were given either IV or orally to the same animals. The dose for each compound was 1 mg/kg (volume 5 ml/kg) IV and 10 mg/kg (volume 10 ml/kg) orally. The formulation for IV was in 10% SOLUTOL® HS 15+90% Phosphate-Buffered Saline at […]. A 100% (0.5% Tween 80 in 0.5% methylcellulose (MC) in water) at […] suspension was used for the oral formulation. Sample collection: for the IV route, plasma samples were collected at the time points of 0.083, 0.25, 0.5, 1, 2, 4, 8 and 24 hr. For the oral route, plasma samples were collected at the time points of 0.25, 0.5, 1, 2, 4, 8 and 24 hr. Total bioavailability is calculated by adding parent compound and major metabolites. Analysis: LC-MS/MS was used to calculate PK parameters: t1/2, tmax, Cmax, Vss and AUC, etc.
The following Table E lists selected compounds and their bioavailability (F).
Compound 3 and 4 have much improved bioavailability (F=100%).

Row | SMILES | Tumor weight at Day 20 [2] | solubility at 30 min ([3]; pH 7.0 buffer (20 mM), 25° C.) | Stability at 0° C. or 25° C. (in words) ([4]; one month) | Day 30 at 25° C. (purity) [4] | Day 0 (purity) [4] | Day 30 at 0° C. (purity) [5] | IC50 [7] | other results
1 | C[C@H]1Oc2cc(cnc2N)-c2c(nn(C)c2C#N)CN(C)C(=O)c2ccc(F)cc21 [Lorlatinib, reference compound] | 0.531 g | 29 µg/mL (≈ 71.4 µM) | – | – | – | – | – | Prothrombin time [1]: shorten time; #LYMPH and Red blood cell in blood ([1]; end of administration and recovery periods): decreased
2 | CCOC(=O)NCC(=O)Nc1ncc2cc1O[C@H](C)c1cc(F)ccc1C(=O)N(C)Cc1nn(C)c(C#N)c1-2 [Compound 5] | – | – | no significant changes | 99.05% | 99.05% | 99.01% | – | –
3 | CC(=O)NCC(=O)Nc1ncc2cc1O[C@H](C)c1cc(F)ccc1C(=O)N(C)Cc1nn(C)c(C#N)c1-2 [Compound 3] | 0.327 g | 772 µg/mL (≈ 1530 µM) | no significant changes | 99.16% | 99.24% | 99.18% | 279 µM | IC50 [6]: 0.0028 µM; Tumor growth inhibition at day 20 (in words) ([2]; compared with Lorlatinib): significant better tumor growth inhibition; CYP 3A4 inhibition (in words) ([7]; compared with Lorlatinib and Compound 2): much weaker inhibition; IC50 [8]: 0.051 µM; Solubility at pH=7.0 (in words) ([3]; compared with compound 2 and Lorlatinib): much higher solubility
4 | COC(=O)NCC(=O)Nc1ncc2cc1O[C@H](C)c1cc(F)ccc1C(=O)N(C)Cc1nn(C)c(C#N)c1-2 [Compound 4] | – | – | no significant changes | 97.25% | 97.23% | 97.13% | – | –
5 | C[C@H]1Oc2cc(cnc2NC(=O)CN)-c2c(nn(C)c2C#N)CN(C)C(=O)c2ccc(F)cc21 [Compound 2, reference compound] | – | – | – | 86.14% | 97.28% | 92.58% | 10 µM | Stability at 25° C. (in words) ([4]; 25° C., one month): decomposed significantly; Major impurity A at Day 0 ([4]; HPLC, Day 0): 1.13%; Major impurity B at Day 0 ([4]; HPLC, Day 0): 1.39%; Major impurity A at Day 30 ([4]; HPLC, Day 30 at 25° C.): 3.98%; Major impurity B at Day 30 ([4]; HPLC, Day 30 at 25° C.): 8.34%; Stability at −30° C. (in words) ([4]; −30° C.): not stable; Total F (%) (oral bioavailability) [9]: 49%; Solubility at pH 7.0 ([3]; pH 7.0 buffer (20 mM), 25° C.): 0.091 mg/mL
